The text below walks through data of patent US9012439B2, “Use of electrophilic compounds for inducing platelet production or maintaining platelet function” (University of Rochester, priority 2007, dated 2015).

Assay [1] has as its system primary mouse megakaryocytes. The assay is described as follows: Platelet production from cultured mouse bone marrow megakaryocytes. Type of assay: cell-based, mouse (C57BL/6). The procedure:
Bone marrow was isolated from the femora of male C57BL/6 mice (Jackson Laboratories, Bar Harbor, Me.) and plated at a concentration of 1×10^6 cells per well in 12-well plates in IMDM (Iscove's Modified Dulbecco's Media, Invitrogen) with 20% BIT 9500 (BSA, insulin, transferrin) and supplemented with 100 ng/mL of rhTPO. Cells were cultured for 5 days, following which 15d-PGJ2 (10 μM) was added to the culture medium for 24 h. On the sixth day, cells were examined by phase-contrast microscopy using an inverted microscope (Olympus IX81) and images were captured using SPOT RT software (New Hyde Park, N.Y.). Megakaryocytes were identified by preincubating with anti-mouse CD16/32 (FcγR-blocking antibody) and then incubating with PE-conjugated hamster anti-mouse CD41 antibody.
(§1) Platelets were isolated from megakaryocytes by centrifugation at 150 xg for 10 min. Supernatants underwent sequential centrifugation (500 xg for 10 min and 1000×g for 10 min). The remaining platelet pellet was fixed then permeabilized with a CD61 or CD41 antibody. 7-AAD (BD Pharmingen) was added for 10 min before analyzing the cells by flow cytometry. […]

The subject of assay [2] is M07e cells. The assay is described as follows: Platelet production from M07e cells (flow cytometry). Type of assay: cell-based. Particulars: 10 μM, 24 h. On the procedure: Meg-01 and M07e cells were purchased from the American Type Culture Collection (Rockville, Md.) and Dami cells were a generous gift from Dr. Patricia J. Simpson-Haidaris (University of Rochester). All cells were cultured in RPMI-1640 tissue culture medium (Invitrogen) supplemented with 5% fetal bovine serum (FBS; Invitrogen), 10 mM HEPES (N-2-hydroxyethylpiperazine-N′-2-ethanesulfonic acid; Sigma), 2 mM L-glutamine (Invitrogen), 4.5 g/L glucose (Invitrogen), and 50 μg/mL gentamicin (Invitrogen). M07e cells were also supplemented with 100 ng/mL of granulocyte monocyte-colony stimulating factor (GM-CSF, R&D Systems). All treatments were performed in normal growth media. Dimethyl sulfoxide (DMSO) was used as a vehicle (control) in the experiments described below.
as §1
Background: In flow cytometry, cells or beads pass a laser one at a time.

The subject of assay [3] is Meg-01 cells. Nature of the assay: Active-caspase protein in Meg-01 cells. Type of assay: cell-based, human. Particulars: Meg-01 cells in the presence of 15d-PGJ2.
Assay [4] has as its system Meg-01 cells. Nature of the assay: Meg-01 morphology (phalloidin f-actin staining, transmission electron microscopy). Type of assay: cell-based, human. As to conditions: 10 μM. On the procedure: Cells were fixed and permeabilized with 0.1% triton-100 for 1 h at room temperature (RT). Subsequently, cells were blocked with 1% bovin serum albumin (BSA) in PBS-Tween 20 (0.1%) for 1 h at RT then stained with phalloidin-Alexa Fluor 488 (Invitrogen, 1:200) at RT for 2 h. Cells were mounted and visualized using an Olympus BX51 light microscope (Olympus, Melville, N.Y.).
Cells were fixed for 4 h in 2.5% glutaraldehyde in 0.1 M sodium cacodylate buffer. Post-fixation cells were placed in 1% osmium tetroxide in phosphate buffer, dehydrated in ethanol, embedded in EPON/Araldite epoxy resin and analyzed on a Hitachi H-7100 electron microscope.

The subject of assay [5] is Meg-01 cells. Nature of the assay: DNA content analysis of Meg-01 cells. The class given is cell-based, human. As to conditions: 10 μM. The procedure:
Cells were fixed in 95% ethanol, treated with RNAse (Sigma) followed by 20 μg/mL propidium iodide (Sigma) to stain DNA, and analyzed by flow cytometry.

Assay [6] deals with primary human megakaryocytes. Nature of the assay: Reactive oxygen species production in primary human megakaryocytes. The class given is cell-based. As to conditions: 1 h and 6 h. On the procedure: Human CD34+ cord blood cells were obtained from the National Disease Research Interchange (NDRI, Philadelphia, Pa.). Cells were plated at 2.5×10^5 cells per well in a 12-well plate and cultured in serum-free medium as previously described (Zeuner et al., “Chemotherapy-induced Thrombocytopenia Derives from the Selective Death of Megakaryocyte Progenitors and Can Be Rescued by Stem Cell Factor,” Cancer Res 67:4767-4773 (2007), which is hereby incorporated by reference in its entirety) and supplemented with 100 ng/mL of rhTPO. After 14 days in culture, megakaryocytes were identified by staining with a CD61-FITC antibody and analyzed on a BD Biosciences FACSCalibur flow cytometer. Data were analyzed using FlowJo software (Treestar, Ashland, Oreg.). Cell images were captured using an inverted microscope (Olympus IX81). Ten μM carboxy-H2DCFDA was added to cells for 20 min at RT. The cells were washed and immediately analyzed by flow cytometry. Five μM of MitoSOX Red dye in HBSS containing Mg^2+ and Ca^2+ was added to the cells for 15 min at 37° C. The cells were washed in HBSS and analyzed by flow cytometry.

In the case of `CCCCCC=CC=C1C(=O)C=C[C@@H]1CC=CCCCC(=O)O` [15d-PGJ2, 15-deoxy-Δ^12,14 prostaglandin J2], in assay [1] (mouse bone marrow cultured 5 days with rhTPO, then 10 μM for 24 h), the “increase in percentage of CD61+ platelets in culture” value is listed as ~14%. Moreover, the megakaryocyte surface morphology result in assay [1] (mouse megakaryocytes, 10 μM, 24 h, microscopy) is reported as “induced the appearance of ruffled edges on the megakaryocytes”. For the same molecule, in assay [2], the platelet production entry is listed as “increased platelet production”. Besides, the active-caspase protein result in assay [3] is on record as “upregulated active-caspase protein”. Moreover, the “morphological changes by f-actin (phalloidin) staining” value in assay [4] (within 1-2 h) is “Morphological changes, characteristic of megakaryopoiesis”. In addition, in assay [4] (within 24 h), the “structural characteristics by transmission electron microscopy” value was “structural characteristics consistent with differentiating cells”. For the same molecule, the DNA content entry in assay [5] (24 h and 48 h) is “unchanged”. Further, in assay [5] (72 h), the DNA content entry is “increased DNA content”. In addition, in assay [6], the “percentage of ROS positive cells, Mitosox Red staining” value is listed as “increase in the percentage of ROS positive cells” and the “percentage of ROS positive cells, carboxy-H2DCFDA staining” value is on record as “increase in the percentage of ROS positive cells”.
